Where a SMILES comes first, the peptide text is derived from it. Bridges are numbered along the chain shown (N, C = ends). [ ]: non-standard residue; d: D form. The star is where a group is joined. hPhe(3-Cl-4-CF3) = N[C@@H](CCc1ccc(C(F)(F)F)c(Cl)c1)C(=O)O; NEtPhe(4-Me) = CCN[C@@H](Cc1ccc(C)cc1)C(=O)O; NMePhe(4-Me) = CN[C@@H](Cc1ccc(C)cc1)C(=O)O; NMeGly(cPent) = CN[C@H](C(=O)O)C1CCCC1; NMeD = CN[C@@H](CC(=O)O)C(=O)O; NMeL = CN[C@@H](CC(C)C)C(=O)O; Morpholide = C1CN(*)CCO1; NMeA = CN[C@@H](C)C(=O)O; Ac5c = NC1(C(=O)O)CCCC1; Aze = O=C(O)[C@@H]1CCN1; NEtG = CCNCC(=O)O; Sar = CNCC(=O)O
How the values were obtained:
[1] = target: GDP-bound NRAS wild-type protein (Homo sapiens, UniProt P01111); experiment: Binding to NRAS by surface plasmon resonance (SPR), Single Cycle Kinetics; conditions: for NRAS/KRAS (ratio of KD value with respect to NRAS to KD value with respect to KRAS): GDP-bound NRAS wild-type vs GDP-bound KRAS wild-type
[2] = target: GDP-bound HRAS wild-type protein (Homo sapiens, UniProt P01112); experiment: Binding to HRAS by surface plasmon resonance (SPR), Single Cycle Kinetics; conditions: for HRAS/KRAS (ratio of KD value with respect to HRAS to KD value with respect to KRAS): GDP-bound HRAS wild-type vs GDP-bound KRAS wild-type
GDP-bound HRAS wild-type protein, sequence (P01112 whole entry): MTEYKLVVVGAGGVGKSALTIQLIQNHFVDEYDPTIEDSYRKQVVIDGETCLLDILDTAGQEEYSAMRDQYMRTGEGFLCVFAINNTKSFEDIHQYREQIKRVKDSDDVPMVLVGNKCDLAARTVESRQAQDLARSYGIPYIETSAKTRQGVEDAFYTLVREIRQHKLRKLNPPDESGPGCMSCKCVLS

GDP-bound NRAS wild-type protein, sequence (P01111 whole entry): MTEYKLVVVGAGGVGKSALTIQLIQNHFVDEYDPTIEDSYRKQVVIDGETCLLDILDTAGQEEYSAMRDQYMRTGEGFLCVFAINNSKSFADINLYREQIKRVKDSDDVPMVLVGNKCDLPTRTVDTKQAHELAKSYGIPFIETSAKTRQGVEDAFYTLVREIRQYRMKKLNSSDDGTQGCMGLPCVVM

CC[C@H](C)[C@@H]1NC(=O)[C@H](CC(C)C)N(C)C(=O)C[C@@H](C(=O)N2CCOCC2)N(C)C(=O)[C@H](C2CCCC2)N(C)C(=O)C2(CCCC2)NC(=O)[C@@H]2CCCN2C(=O)[C@H](CCc2ccc(C(F)(F)F)c(Cl)c2)NC(=O)CN(C)C(=O)[C@H](Cc2ccc(C)cc2)N(CC)C(=O)CN(CC)C(=O)CN(C)C1=O [PP0027] ([NMeL]I[Sar][NEtG][NEtPhe(4-Me)][Sar][hPhe(3-Cl-4-CF3)]P[Ac5c][NMeGly(cPent)][NMeD]-Morpholide; lactam N-11)
NRAS/KRAS (ratio of KD for GDP-bound NRAS wild-type to KD for KRAS) ([1]; KD ratio NRAS/KRAS, SPR): C (A compound having a KD ratio of 0.1 or more and less than 3 is denoted as C)
HRAS/KRAS (ratio of KD for GDP-bound HRAS wild-type to KD for KRAS) ([2]; KD ratio HRAS/KRAS, SPR): C (A compound having a KD ratio of 0.1 or more and less than 3 is denoted as C)

CCO[C@@H]1C[C@H]2C(=O)NC3(CCC3)C(=O)N(C)[C@@H](C3CCCC3)C(=O)N(C)[C@H](C(=O)N(C)CCOC)CC(=O)N(C)[C@@H](C)C(=O)N[C@@H]([C@@H](C)CC)C(=O)N(C)CC(=O)N(C)[C@H]3C/C=C\CCN(C3=O)[C@@H](Cc3ccc(C(F)(F)F)cc3)C(=O)N(C)CC(=O)N[C@@H](CCc3cc(F)c(C(F)(F)F)c(F)c3)C(=O)N2C1 [PP1319]
NRAS/KRAS (ratio of KD value for GDP-bound NRAS wild-type protein to KD value for KRAS) ([1]; SPR, KD ratio class): A (a compound having 10 or more and less than 20 is denoted as A)
HRAS/KRAS (ratio of KD value for GDP-bound HRAS wild-type protein to KD value for KRAS) ([2]; SPR, KD ratio class): B (a compound having 3 or more and less than 10 is denoted as B)

CCCOC[C@H]1C(=O)N[C@@H]([C@@H](C)CC)C(=O)N(C)CC(=O)N(C)[C@H]2C/C=C\CCN(C2=O)[C@@H](Cc2ccc(C)cc2)C(=O)N(C)CC(=O)N[C@@H](CCc2ccc(C(F)(F)F)c(OC)c2)C(=O)N2C[C@H](OCC)C[C@H]2C(=O)N(C)C2(CCC2)C(=O)N(C)[C@@H](C2CCCC2)C(=O)N(C)[C@H](C(=O)N(C)C)CC(=O)N1C [PP2326]
NRAS/KRAS (ratio of KD value with respect to NRAS to KD value with respect to KRAS) ([1]; SPR): A (a compound having 10 or more and less than 20 is denoted as A)
HRAS/KRAS (ratio of KD value with respect to HRAS to KD value with respect to KRAS) ([2]; SPR): B (a compound having 3 or more and less than 10 is denoted as B)

CCOC[C@H]1C(=O)N[C@@H]([C@@H](C)CC)C(=O)N(C)CC(=O)N(C)[C@H]2C/C=C\CCN(C2=O)[C@@H](CC2CCCCC2)C(=O)N(C)CC(=O)N[C@@H](CCc2cc(F)c(C(F)(F)F)c(F)c2)C(=O)N2C[C@H](OCC)C[C@H]2C(=O)NC2(CC(C)(C)C2)C(=O)N(C)[C@@H](C(CC)CC)C(=O)N(C)[C@H](C(=O)N(C)C)CC(=O)N1C [PP2479]
NRAS/KRAS (ratio of KD value with respect to NRAS to KD value with respect to KRAS) ([1]; SPR): AA (a compound having 20 or more is denoted as AA)
HRAS/KRAS (ratio of KD value with respect to HRAS to KD value with respect to KRAS) ([2]; SPR): A (a compound having 10 or more and less than 20 is denoted as A)

CC[C@H](C)[C@@H]1NC(=O)[C@H](CC(C)C)N(C)C(=O)C[C@@H](C(=O)N2CCOCC2)N(C)C(=O)[C@H](C2CCCC2)N(C)C(=O)C2(CCCC2)NC(=O)[C@@H]2CCCN2C(=O)[C@H](CCc2ccc(C(F)(F)F)c(Cl)c2)NC(=O)CN(CC)C(=O)[C@H](Cc2ccc(C)cc2)N(C)C(=O)[C@@H]2CCN2C(=O)[C@H](C)N(C)C1=O [PP0004] ([NMeL]I[NMeA][Aze][NMePhe(4-Me)][NEtG][hPhe(3-Cl-4-CF3)]P[Ac5c][NMeGly(cPent)][NMeD]-Morpholide; lactam N-11)
NRAS/KRAS (ratio of KD for GDP-bound NRAS wild-type to KD for KRAS) ([1]; KD ratio NRAS/KRAS, SPR): C (A compound having a KD ratio of 0.1 or more and less than 3 is denoted as C)
HRAS/KRAS (ratio of KD for GDP-bound HRAS wild-type to KD for KRAS) ([2]; KD ratio HRAS/KRAS, SPR): C (A compound having a KD ratio of 0.1 or more and less than 3 is denoted as C)

CCO[C@@H]1C[C@H]2C(=O)NC3(CC=CC3)C(=O)N(C)[C@@H](C3CCCC3)C(=O)N(CC)[C@H](C(=O)N3CCOCC3)CC(=O)N(C)[C@@H](CC(C)C)C(=O)N[C@@H]([C@@H](C)CC)C(=O)N(C)CC(=O)N(C)[C@H]3CCCCCN(C3=O)[C@@H](Cc3ccc(C(F)(F)F)cc3)C(=O)N(C)CC(=O)N[C@@H](CCc3cc(F)c(C(F)(F)F)c(F)c3)C(=O)N2C1 [PP0956]
NRAS/KRAS (ratio of KD value with respect to NRAS to KD value with respect to KRAS) ([1]; KD ratio, SPR): A (a compound having 10 or more and less than 20 is denoted as A)
HRAS/KRAS (ratio of KD value with respect to HRAS to KD value with respect to KRAS) ([2]; KD ratio, SPR): A (a compound having 10 or more and less than 20 is denoted as A)

CCC[C@H]1C(=O)N[C@@H]([C@@H](C)CC)C(=O)N(C)CC(=O)N(C)[C@H]2C/C=C\CCN(C2=O)[C@@H](Cc2ccc(C)cc2)C(=O)N(C)CC(=O)N[C@@H](CCc2ccc3c(C)c(C)n(C)c3c2)C(=O)N2C[C@H](OCC)C[C@H]2C(=O)NC2(CC(C)(C)C2)C(=O)N(C)[C@@H](C2CCCC2)C(=O)N(C)[C@H](C(=O)N(C)C)CC(=O)N1C [PP2895]
NRAS/KRAS (ratio of KD value with respect to GDP-bound NRAS wild-type protein to KD value with respect to KRAS) ([1]; KD ratio NRAS/KRAS, class symbols): A (a compound having 10 or more and less than 20 is denoted as A)
HRAS/KRAS (ratio of KD value with respect to GDP-bound HRAS wild-type protein to KD value with respect to KRAS) ([2]; KD ratio HRAS/KRAS, class symbols): A (a compound having 10 or more and less than 20 is denoted as A)
